From ChEMBL document CHEMBL1201862, “PubChem BioAssay data set” (2004)
The source made the active and inactive calls.

Experiments:
SUMO-activating enzyme = SUMO-activating enzyme (Homo sapiens, UniProt Q9UBT2); assay: SUMOylation inhibitor hit validation, confirmation, SUMOylation inhibitor project, biochemical, AlphaScreen (AID 2018); format: functional
[1] = molecular target: Voltage-gated N-type calcium channel alpha-1B subunit/Amyloid beta A4 precursor protein-binding family A member 1 (Homo sapiens, UniProt Q00975+Q02410); format: protein assay
[2] = molecular target: Serine/threonine-protein phosphatase PP1-alpha catalytic subunit (Homo sapiens, UniProt P62136); assay: PP1 phosphatase inhibitors, dose response, biochemical, fluorescence (AID 2403);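 also: phosphatase turnover of OMFP into fluorescent 3-O-methylfluorescein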
Sequence of Serine/threonine-protein phosphatase PP1-alpha catalytic subunit (P62136 whole entry): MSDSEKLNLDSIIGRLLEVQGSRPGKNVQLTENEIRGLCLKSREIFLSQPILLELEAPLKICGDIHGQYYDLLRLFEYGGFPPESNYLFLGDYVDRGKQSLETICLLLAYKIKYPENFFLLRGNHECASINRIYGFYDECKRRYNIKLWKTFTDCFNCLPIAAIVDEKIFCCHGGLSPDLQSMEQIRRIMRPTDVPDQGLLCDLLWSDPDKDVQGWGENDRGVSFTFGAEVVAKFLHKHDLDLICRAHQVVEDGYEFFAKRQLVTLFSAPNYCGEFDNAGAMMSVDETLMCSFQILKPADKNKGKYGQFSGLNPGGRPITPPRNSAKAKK

[3] = molecular target: T1, Serine/threonine-protein phosphatase (Homo sapiens, UniProt Q9BPW0); assay: Counterscreen for inhibitors of PP1: fluorescence-based biochemical high throughput dose response assay to identify inhibitors of Protein Phosphatase 5 (PP5). [Related pubchem assays: 2034 (Summary (PP5 inhibitors)), 1987 (PP5 inhibitors in singlate), 2235 (PP1 inhibitors in singlate)]
T1 sequence (Q9BPW0 whole entry): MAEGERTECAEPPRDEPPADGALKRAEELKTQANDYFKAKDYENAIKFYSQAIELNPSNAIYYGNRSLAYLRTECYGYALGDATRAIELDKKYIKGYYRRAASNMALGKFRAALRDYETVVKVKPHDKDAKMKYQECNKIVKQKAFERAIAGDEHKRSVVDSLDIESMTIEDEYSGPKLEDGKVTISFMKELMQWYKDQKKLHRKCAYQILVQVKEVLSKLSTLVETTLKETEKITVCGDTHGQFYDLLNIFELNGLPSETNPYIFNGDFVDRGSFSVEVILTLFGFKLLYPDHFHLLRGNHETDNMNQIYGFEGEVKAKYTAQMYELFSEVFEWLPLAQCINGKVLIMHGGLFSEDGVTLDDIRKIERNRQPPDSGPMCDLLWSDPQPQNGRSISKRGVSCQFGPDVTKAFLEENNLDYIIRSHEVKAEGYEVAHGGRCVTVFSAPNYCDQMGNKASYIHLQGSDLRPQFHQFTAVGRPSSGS

[4] = molecular target: T2, Replicative DNA helicase DnaB (Mycobacterium tuberculosis, UniProt P9WMR3); assay: DnaB intein splicing inhibitors, dose response, biochemical, cell-free fluorescence (AID 449749); format: functional
T2 sequence (P9WMR3 whole entry): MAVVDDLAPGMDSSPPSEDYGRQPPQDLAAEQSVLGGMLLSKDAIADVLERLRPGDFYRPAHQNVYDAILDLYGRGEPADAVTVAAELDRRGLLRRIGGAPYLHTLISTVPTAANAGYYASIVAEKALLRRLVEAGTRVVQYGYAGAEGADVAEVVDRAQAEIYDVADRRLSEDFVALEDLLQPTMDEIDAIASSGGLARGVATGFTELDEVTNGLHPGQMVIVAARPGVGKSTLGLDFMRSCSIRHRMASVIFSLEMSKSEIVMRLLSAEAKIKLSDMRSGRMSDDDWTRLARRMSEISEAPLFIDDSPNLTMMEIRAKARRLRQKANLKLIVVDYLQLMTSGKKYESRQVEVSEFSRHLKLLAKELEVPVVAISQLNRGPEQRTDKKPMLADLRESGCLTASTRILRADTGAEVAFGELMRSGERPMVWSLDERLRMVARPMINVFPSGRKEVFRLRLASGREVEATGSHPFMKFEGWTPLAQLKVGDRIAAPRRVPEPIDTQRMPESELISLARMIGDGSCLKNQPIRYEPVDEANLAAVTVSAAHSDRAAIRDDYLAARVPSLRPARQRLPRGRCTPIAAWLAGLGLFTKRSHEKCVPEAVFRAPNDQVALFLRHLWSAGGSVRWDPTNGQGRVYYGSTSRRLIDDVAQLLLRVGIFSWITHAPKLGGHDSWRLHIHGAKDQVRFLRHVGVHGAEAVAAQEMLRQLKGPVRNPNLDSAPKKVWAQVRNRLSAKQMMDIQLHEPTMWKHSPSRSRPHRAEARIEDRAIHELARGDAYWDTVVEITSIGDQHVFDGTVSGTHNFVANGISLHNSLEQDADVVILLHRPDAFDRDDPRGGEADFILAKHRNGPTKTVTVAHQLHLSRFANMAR

[5] = molecular target: T3, Sentrin-specific protease 8 (Homo sapiens, UniProt Q96LD8); format: functional
T3 sequence (Q96LD8 whole entry): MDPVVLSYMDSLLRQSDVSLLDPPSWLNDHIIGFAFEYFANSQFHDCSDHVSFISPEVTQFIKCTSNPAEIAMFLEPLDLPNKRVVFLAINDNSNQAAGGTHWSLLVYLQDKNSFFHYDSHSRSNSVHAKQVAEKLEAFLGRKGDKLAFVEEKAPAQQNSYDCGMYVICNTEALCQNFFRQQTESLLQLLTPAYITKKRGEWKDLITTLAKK

[6] = molecular target: Serine/threonine-protein kinase pim-1 (Homo sapiens, UniProt P11309); format: functional
Sequence of Serine/threonine-protein kinase pim-1 (P11309 whole entry, canonical isoform): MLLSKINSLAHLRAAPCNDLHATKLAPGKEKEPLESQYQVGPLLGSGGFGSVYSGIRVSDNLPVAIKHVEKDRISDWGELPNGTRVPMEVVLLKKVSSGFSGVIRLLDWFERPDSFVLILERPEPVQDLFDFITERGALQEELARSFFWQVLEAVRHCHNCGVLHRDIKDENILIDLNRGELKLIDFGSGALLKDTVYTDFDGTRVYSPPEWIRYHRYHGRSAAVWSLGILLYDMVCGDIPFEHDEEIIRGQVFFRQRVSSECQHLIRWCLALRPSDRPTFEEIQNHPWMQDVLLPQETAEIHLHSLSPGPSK

[7] = molecular target: Casein kinase I isoform alpha (Homo sapiens, UniProt P48729); format: functional
Sequence of Casein kinase I isoform alpha (P48729 whole entry, canonical isoform): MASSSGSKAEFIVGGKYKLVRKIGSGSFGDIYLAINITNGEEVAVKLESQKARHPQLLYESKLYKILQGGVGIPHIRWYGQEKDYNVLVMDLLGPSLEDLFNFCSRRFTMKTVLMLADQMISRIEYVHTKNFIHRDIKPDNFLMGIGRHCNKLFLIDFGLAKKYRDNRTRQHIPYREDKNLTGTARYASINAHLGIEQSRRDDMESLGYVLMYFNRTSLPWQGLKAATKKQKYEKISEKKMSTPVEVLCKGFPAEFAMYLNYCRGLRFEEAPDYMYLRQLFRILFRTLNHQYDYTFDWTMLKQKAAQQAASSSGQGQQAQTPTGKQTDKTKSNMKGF

[8] = molecular target: Glycogen synthase kinase-3 alpha (Homo sapiens, UniProt P49840); format: functional;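 also: GSK3A result taken from a broad kinome-wide kinase panel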
[9] = molecular target: Serine/threonine-protein kinase Chk1 (Homo sapiens, UniProt O14757); format: functional;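 also: measured as one member of a kinome-wide kinase profiling panel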
[10] = molecular target: Tyrosine-protein kinase ABL1 (Homo sapiens, UniProt P00519); format: functional
Sequence of Tyrosine-protein kinase ABL1 (P00519 whole entry): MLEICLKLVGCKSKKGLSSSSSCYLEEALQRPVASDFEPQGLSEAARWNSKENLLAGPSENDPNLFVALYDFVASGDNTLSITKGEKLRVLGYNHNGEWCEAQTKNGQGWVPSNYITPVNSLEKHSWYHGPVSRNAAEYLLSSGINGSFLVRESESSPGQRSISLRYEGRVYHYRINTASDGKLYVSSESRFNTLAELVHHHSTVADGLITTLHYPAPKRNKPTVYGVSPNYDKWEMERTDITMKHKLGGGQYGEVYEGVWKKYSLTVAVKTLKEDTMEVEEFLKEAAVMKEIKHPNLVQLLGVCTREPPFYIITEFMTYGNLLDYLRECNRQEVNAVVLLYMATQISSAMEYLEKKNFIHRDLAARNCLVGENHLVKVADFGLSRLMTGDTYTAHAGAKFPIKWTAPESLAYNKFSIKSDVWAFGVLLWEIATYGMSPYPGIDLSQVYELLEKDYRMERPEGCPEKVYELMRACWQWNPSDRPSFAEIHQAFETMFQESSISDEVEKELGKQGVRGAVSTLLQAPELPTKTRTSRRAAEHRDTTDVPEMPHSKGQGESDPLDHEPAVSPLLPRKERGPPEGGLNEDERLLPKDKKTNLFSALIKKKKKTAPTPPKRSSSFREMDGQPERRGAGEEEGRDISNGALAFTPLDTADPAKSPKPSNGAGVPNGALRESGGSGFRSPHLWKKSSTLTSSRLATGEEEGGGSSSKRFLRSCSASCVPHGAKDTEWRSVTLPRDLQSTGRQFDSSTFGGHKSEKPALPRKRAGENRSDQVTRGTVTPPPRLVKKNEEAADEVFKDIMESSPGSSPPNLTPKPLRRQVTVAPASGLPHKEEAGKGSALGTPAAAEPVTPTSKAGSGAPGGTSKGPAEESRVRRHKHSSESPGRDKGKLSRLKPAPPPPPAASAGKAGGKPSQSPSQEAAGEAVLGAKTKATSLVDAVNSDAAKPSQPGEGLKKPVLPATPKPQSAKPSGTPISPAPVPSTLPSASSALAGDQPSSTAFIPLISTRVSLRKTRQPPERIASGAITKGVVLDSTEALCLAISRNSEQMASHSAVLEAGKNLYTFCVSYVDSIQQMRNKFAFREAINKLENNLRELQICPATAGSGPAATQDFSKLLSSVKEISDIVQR

[11] = molecular target: G protein-coupled receptor kinase 5 (Homo sapiens, UniProt P34947); assay: Navigating the Kinome. Panel member name: GPRK5; format: functional
Sequence of G protein-coupled receptor kinase 5 (P34947 whole entry): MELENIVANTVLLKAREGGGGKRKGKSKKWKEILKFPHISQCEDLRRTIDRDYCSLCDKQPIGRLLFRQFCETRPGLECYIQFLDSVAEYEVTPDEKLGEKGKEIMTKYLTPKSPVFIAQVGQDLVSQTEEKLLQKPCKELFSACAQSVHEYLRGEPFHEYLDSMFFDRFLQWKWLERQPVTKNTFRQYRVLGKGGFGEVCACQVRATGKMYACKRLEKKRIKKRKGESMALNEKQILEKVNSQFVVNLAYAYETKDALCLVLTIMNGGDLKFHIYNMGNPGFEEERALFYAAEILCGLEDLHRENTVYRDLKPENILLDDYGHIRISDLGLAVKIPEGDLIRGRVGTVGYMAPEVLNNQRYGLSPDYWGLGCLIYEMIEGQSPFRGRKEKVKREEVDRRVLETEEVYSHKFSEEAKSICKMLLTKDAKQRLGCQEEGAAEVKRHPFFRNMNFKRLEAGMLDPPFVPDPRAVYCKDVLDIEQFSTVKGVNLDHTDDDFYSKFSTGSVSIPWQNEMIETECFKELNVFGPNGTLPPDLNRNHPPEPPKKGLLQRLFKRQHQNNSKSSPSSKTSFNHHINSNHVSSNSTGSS

[12] = molecular target: Insulin-like growth factor 1 receptor (Homo sapiens, UniProt P08069); assay: Navigating the Kinome. Panel member name: IGF1R; format: functional
[13] = molecular target: Dual specificity tyrosine-phosphorylation-regulated kinase 1B (Homo sapiens, UniProt Q9Y463); assay: Navigating the Kinome. Panel member name: DYRK1B; format: functional
Focal adhesion kinase 1 = Focal adhesion kinase 1 (Homo sapiens, UniProt Q05397); format: functional;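 also: measured as one member of a kinome panel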
Aurora kinase B = Aurora kinase B (Homo sapiens, UniProt Q96GD4); format: functional
Sequence of Aurora kinase B (Q96GD4 whole entry): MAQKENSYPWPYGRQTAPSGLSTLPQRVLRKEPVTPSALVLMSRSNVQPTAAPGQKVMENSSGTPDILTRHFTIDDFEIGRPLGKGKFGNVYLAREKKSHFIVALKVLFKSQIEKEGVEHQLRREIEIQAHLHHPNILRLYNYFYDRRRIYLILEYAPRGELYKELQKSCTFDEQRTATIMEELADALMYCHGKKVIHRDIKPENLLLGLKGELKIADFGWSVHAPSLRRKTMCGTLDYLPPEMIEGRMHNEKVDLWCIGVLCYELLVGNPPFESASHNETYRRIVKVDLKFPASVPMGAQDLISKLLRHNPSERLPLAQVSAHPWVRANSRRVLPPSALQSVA

[14] = molecular target: Glycogen synthase kinase-3 beta (Homo sapiens, UniProt P49841); format: functional;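 also: value comes from a broad kinome profiling panel, with GSK3B as the panel member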
Sequence of Glycogen synthase kinase-3 beta (P49841 whole entry): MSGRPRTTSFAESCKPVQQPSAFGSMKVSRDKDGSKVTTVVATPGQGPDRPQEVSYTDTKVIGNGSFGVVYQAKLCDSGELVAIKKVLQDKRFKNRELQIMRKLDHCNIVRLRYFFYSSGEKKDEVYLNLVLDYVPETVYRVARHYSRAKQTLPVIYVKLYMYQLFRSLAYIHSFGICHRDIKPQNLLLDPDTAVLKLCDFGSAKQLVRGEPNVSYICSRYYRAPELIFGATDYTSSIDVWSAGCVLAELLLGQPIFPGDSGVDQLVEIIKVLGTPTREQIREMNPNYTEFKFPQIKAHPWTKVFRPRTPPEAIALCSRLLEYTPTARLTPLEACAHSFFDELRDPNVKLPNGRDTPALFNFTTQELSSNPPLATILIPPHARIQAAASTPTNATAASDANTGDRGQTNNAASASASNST

[15] = molecular target: cAMP-dependent protein kinase catalytic subunit alpha (Homo sapiens, UniProt P17612); format: functional
[16] = molecular target: Mitogen-activated protein kinase kinase kinase kinase 4 (Homo sapiens, UniProt O95819); format: functional
Sequence of Mitogen-activated protein kinase kinase kinase kinase 4 (O95819 whole entry): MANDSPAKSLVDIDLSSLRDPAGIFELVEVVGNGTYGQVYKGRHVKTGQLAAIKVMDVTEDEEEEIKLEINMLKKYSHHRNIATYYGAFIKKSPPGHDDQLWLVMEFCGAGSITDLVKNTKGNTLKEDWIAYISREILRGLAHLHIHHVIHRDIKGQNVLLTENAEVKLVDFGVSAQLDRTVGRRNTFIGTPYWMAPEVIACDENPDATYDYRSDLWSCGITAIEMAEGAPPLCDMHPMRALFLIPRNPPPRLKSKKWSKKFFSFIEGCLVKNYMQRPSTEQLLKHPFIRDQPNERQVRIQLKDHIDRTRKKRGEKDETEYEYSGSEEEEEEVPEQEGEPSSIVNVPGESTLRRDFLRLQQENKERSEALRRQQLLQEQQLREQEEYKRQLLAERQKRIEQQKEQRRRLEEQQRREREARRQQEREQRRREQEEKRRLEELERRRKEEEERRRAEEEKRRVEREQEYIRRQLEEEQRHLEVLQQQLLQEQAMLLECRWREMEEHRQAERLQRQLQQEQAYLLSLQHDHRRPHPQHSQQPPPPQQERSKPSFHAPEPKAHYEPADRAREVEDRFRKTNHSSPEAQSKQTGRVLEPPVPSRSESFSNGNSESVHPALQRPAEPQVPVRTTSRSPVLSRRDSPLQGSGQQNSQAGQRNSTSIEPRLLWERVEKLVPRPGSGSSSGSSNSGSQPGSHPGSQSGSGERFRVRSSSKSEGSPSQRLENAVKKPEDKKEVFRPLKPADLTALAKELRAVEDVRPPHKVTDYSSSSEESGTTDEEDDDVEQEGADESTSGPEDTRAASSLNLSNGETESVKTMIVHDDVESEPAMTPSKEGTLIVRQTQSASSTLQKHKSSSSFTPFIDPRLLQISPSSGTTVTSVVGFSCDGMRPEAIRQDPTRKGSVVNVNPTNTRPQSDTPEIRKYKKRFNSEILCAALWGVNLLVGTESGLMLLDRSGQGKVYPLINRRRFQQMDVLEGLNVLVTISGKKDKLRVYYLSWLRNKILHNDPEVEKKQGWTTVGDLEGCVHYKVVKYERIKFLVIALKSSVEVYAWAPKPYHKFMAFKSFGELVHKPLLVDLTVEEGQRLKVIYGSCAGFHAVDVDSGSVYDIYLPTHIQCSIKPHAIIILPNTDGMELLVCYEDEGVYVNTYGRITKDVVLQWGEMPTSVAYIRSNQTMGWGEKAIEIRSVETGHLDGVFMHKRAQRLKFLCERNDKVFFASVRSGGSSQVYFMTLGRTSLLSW

[17] = molecular target: Macrophage colony-stimulating factor 1 receptor (Homo sapiens, UniProt P07333); format: functional;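 also: value comes from the Navigating the Kinome screening panel, CSF1R member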
[18] = molecular target: Dual specificity mitogen-activated protein kinase kinase 2 (Homo sapiens, UniProt P36507); assay: Navigating the Kinome. Panel member name: MAP2K2; format: functional
[19] = molecular target: Intestinal-type alkaline phosphatase (Mus musculus, UniProt P24822); assay: mouse intestinal alkaline phosphatase activators, dose response, biochemical, luminescence, uHTS hits (AID 488783); format: functional

CC(=O)N(C1=C(Cl)C(=O)c2ccccc2C1=O)c1ccc(C(=O)O)cc1
IC50 (SUMO-activating enzyme): 3.77 µM (active) | IC50 [1]: 0.225 µM (active)

CC1(C)C=C2C(=NN(c3ccccc3)C(N)=C2C#N)CO1
IC50 [2]: 55.8 µM (not active) | IC50 [3]: > 0.828 µM (active) | AC50 [4]: > 380 µM (inconclusive) | IC50 [5]: 0.0693 µM (active)

Cc1ccc(-c2cc3nc(Br)cnc3[nH]2)cc1
Ki [6]: > 6.31 µM (inactive) | Ki [7]: > 3.98 µM (inactive) | Ki [8]: > 3.98 µM (inactive) | Ki [9]: > 3.16 µM (inactive) | Ki [10]: 0.794 µM (active) | Ki [11]: > 3.98 µM (inactive) | Ki [12]: > 2.51 µM (inactive) | Ki [13]: > 2.51 µM (inactive) | Ki (Focal adhesion kinase 1): > 6.31 µM (inactive) | Ki (Aurora kinase B): 0.794 µM (active) | Ki [14]: > 3.98 µM (inactive) | Ki [15]: > 1.26 µM (inactive) | Ki [16]: > 5.01 µM (inactive) | Ki [17]: > 2.51 µM (inactive) | Ki [18]: > 3.98 µM (inactive)

O=C1C=C(O)c2c(O)cc(O)c(O)c2C1=O
EC50 [19]: 9.93 µM (active)
